23 compounds from patent US8436043B2 (Takeda Pharmaceutical Company Limited, priority 2008, dated 2013) can be followed below.

T1 sequence (P47871 26-477): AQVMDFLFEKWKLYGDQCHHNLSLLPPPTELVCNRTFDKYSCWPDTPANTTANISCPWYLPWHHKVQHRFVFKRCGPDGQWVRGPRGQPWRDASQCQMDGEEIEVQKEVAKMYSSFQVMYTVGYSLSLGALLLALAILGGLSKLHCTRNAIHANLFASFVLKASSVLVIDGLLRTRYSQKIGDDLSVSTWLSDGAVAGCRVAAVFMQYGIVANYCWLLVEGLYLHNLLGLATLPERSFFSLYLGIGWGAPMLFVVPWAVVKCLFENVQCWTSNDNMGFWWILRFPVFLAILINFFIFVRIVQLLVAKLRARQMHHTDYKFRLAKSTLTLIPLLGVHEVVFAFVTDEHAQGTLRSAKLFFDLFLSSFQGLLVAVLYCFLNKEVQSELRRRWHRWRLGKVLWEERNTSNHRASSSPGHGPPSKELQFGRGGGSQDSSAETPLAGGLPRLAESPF

One experiment has as its target T1, human glucagon receptor (Homo sapiens, UniProt P47871).
T1 construct: made in house; host or cells: FreeStyle CHO cells, transient transfection with pMSRαneo/hGCGR; membrane fraction (35,000 rpm pellet)
Description: Glucagon binding inhibitory activity ([125I]-glucagon binding to glucagon receptor membrane protein). The note with it: test compound 10 μM; 0.4% DMSO = 0%, non-labeled glucagon 1 μM = 100%. In a few lines:
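Receptor source was a membrane fraction of transiently transfected CHO cells bearing human receptor; 90 min room-temperature binding, filtration harvest, scintillation counting.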
With `COCCOc1ccc2oc(C(Nc3ccc(C(=O)N(C)CCC(=O)O)cc3)C3CCCCC3)c(C)c2c1` (centres unmarked) [Example A80, 3-[{[4-({cyclohexyl[5-(2-methoxyethoxy)-3-methyl-1-benzofuran-2-yl]methyl}amino)phenyl]carbonyl}(methyl)amino]propanoic acid], the “inhibitory rate (%) at 10 μM” value amounted to 92%.

On to `Cc1c(C(Nc2ccc(C(=O)N(C)CCC(=O)O)cc2)C(C)C)oc2ccc(OCc3ccccc3)cc12` (centres unmarked) [Example A86, 3-[{[4-({1-[5-(benzyloxy)-3-methyl-1-benzofuran-2-yl]-2-methylpropyl}amino)phenyl]carbonyl}(methyl)amino]propanoic acid], for which the “inhibitory rate (%) at 10 μM” value is 89%.

Still in this experiment, the particulars now being: test compound 10 μM; 0.4% DMSO = 0%, non-labeled glucagon 1 μM = 100%; read-out: inhibitory rate (%) at 10 μM.
For `Cc1c(C(Nc2ccc(C(=O)N(C)CCC(=O)O)cc2)C2CCCCC2)oc2ccc(OC3CCOCC3)cc12` (centres unmarked) [Example A82, 3-[{[4-({cyclohexyl[3-methyl-5-(tetrahydro-2H-pyran-4-yloxy)-1-benzofuran-2-yl]methyl}amino)phenyl]carbonyl}(methyl)amino]propanoic acid], the inhibition at 10 µM amounted to 89%.

On to `Cc1c(C(Nc2ccc(C(=O)N(C)CCC(=O)O)cc2)C(C)C)oc2ccc(OCc3ccccc3)cc12` (centres unmarked) [Example A85, 3-[{[4-({1-[5-(benzyloxy)-3-methyl-1-benzofuran-2-yl]-2-methylpropyl}amino)phenyl]carbonyl}(methyl)amino]propanoic acid], for which the inhibition at 10 µM came to 82%.

Regarding `Cc1c(C(Nc2ccc(C(=O)NCCC(=O)O)cc2)C2CCCCC2)oc2ccc(Cl)cc12` (centres unmarked) [Example A88, 3-{[(4-{[(5-chloro-3-methyl-1-benzofuran-2-yl)(cyclohexyl)methyl]amino}phenyl)carbonyl]amino}propanoic acid], the inhibition at 10 µM was 75%.

With `Cc1c(C(Nc2ccc(C(=O)N(C)CCC(=O)O)cc2)C2CCCCC2)oc2ccc(Cl)cc12` (centres unmarked) [Example A89], the inhibition at 10 µM was determined as 80%.

Regarding `Cc1ccc2oc(C(Nc3ccc(C(=O)NCCC(=O)O)cc3)C3CCCCC3)c(C)c2c1` (centres unmarked) [Example A90, 3-{[(4-{[cyclohexyl(3,5-dimethyl-1-benzofuran-2-yl)methyl]amino}phenyl)carbonyl]amino}propanoic acid], the inhibition at 10 µM is 77%.

Consider `Cc1ccc2oc(C(Nc3ccc(C(=O)N(C)CCC(=O)O)cc3)C3CCCCC3)c(C)c2c1` (centres unmarked) [Example A91, 3-{[(4-{[cyclohexyl(3,5-dimethyl-1-benzofuran-2-yl)methyl]amino}phenyl)carbonyl](methyl)amino}propanoic acid], for which the inhibition at 10 µM was determined as 79%.

As for `COc1ccc2oc(C(CC(C)C)Nc3ccc(C(=O)NCCC(=O)O)cc3)c(C)c2c1` (centres unmarked) [Example A92, 3-{[(4-{[1-(5-methoxy-3-methyl-1-benzofuran-2-yl)-3-methylbutyl]amino}phenyl)carbonyl]amino}propanoic acid], the inhibition at 10 µM is 76%.

Consider `COc1ccc2oc(C(CC(C)C)Nc3ccc(C(=O)N(C)CCC(=O)O)cc3)c(C)c2c1` (centres unmarked) [Example A93, 3-{[(4-{[1-(5-methoxy-3-methyl-1-benzofuran-2-yl)-3-methylbutyl]amino}phenyl)carbonyl](methyl)amino}propanoic acid], for which the inhibition at 10 µM stood at 70%.

With `Cc1c(C(COc2ccccc2)Nc2ccc(C(=O)NCCC(=O)O)cc2)oc2ccccc12` (centres unmarked) [Example A94, 3-{[(4-{[1-(3-methyl-1-benzofuran-2-yl)-2-phenoxyethyl]amino}phenyl)carbonyl]amino}propanoic acid], the inhibition at 10 µM is 57%.

Consider `Cc1c(C(Nc2ccc(C(=O)NCCC(=O)O)cc2)C2CCCCC2)oc2cc(F)ccc12` (centres unmarked) [Example A96, 3-{[(4-{[cyclohexyl(6-fluoro-3-methyl-1-benzofuran-2-yl)methyl]amino}phenyl)carbonyl]amino}propanoic acid], for which the inhibition at 10 µM came to 76%.

As for `Cc1c(C(Nc2ccc(C(=O)N(C)CCC(=O)O)cc2)C2CCCCC2)oc2cc(F)ccc12` (centres unmarked) [Example A97], the inhibition at 10 µM was found to be 76%.

For the compound `Cc1c(C(Nc2ccc(C(=O)NCCC(=O)O)cc2)C2CCCCC2)oc2ccc(C#N)cc12` (centres unmarked) [Example A98, 3-{[(4-{[(5-cyano-3-methyl-1-benzofuran-2-yl)(cyclohexyl)methyl]amino}phenyl)carbonyl]amino}propanoic acid], the inhibition at 10 µM worked out at 78%.

As to `Cc1c(C(Nc2ccc(C(=O)N(C)CCC(=O)O)cc2)C2CCCCC2)oc2ccc(C#N)cc12` (centres unmarked) [Example A99, 3-{[(4-{[(5-cyano-3-methyl-1-benzofuran-2-yl)(cyclohexyl)methyl]amino}phenyl)carbonyl](methyl)amino}-propanoic acid], the inhibition at 10 µM is 80%.

Take `Cc1c(C(CC(C)C)Nc2ccc(C(=O)NCCC(=O)O)cc2)oc2ccc(Cl)cc12` (centres unmarked) [Example A100, 3-{[(4-{[1-(5-chloro-3-methyl-1-benzofuran-2-yl)-3-methylbutyl]amino}phenyl)carbonyl]amino}propanoic acid]: the inhibition at 10 µM was found to be 78%.

Regarding `Cc1c(C(CC(C)C)Nc2ccc(C(=O)N(C)CCC(=O)O)cc2)oc2ccc(Cl)cc12` (centres unmarked) [Example A101, 3-{[(4-{[1-(5-chloro-3-methyl-1-benzofuran-2-yl)-3-methylbutyl]amino}phenyl)carbonyl](methyl)amino}propanoic acid], the inhibition at 10 µM came to 76%.

For `COc1ccc2oc(C(Nc3ccc(C(=O)NCCC(=O)O)cc3)C3CCCCC3)c(Br)c2c1` (centres unmarked) [Example A102, 3-{[(4-{[(3-bromo-5-methoxy-1-benzofuran-2-yl)(cyclohexyl)methyl]amino}phenyl)carbonyl]amino}propanoic acid], the inhibition at 10 µM turned out to be 68%.

On to `COc1ccc2oc(C(Nc3ccc(C(=O)N(C)CCC(=O)O)cc3)C3CCCCC3)c(Br)c2c1` (centres unmarked) [Example A103, 3-{[(4-{[(3-bromo-5-methoxy-1-benzofuran-2-yl)(cyclohexyl)methyl]amino}phenyl)carbonyl](methyl)amino}-propanoic acid], for which the inhibition at 10 µM came out at 66%.

As to `CCC(CC)C(Nc1ccc(C(=O)NCCC(=O)O)cc1)c1oc2ccc(OC)cc2c1C` (centres unmarked) [Example A104, 3-{[(4-{[2-ethyl-1-(5-methoxy-3-methyl-1-benzofuran-2-yl)butyl]amino}phenyl)carbonyl]amino}propanoic acid], the inhibition at 10 µM is 68%.

As for `CCC(CC)C(Nc1ccc(C(=O)N(C)CCC(=O)O)cc1)c1oc2ccc(OC)cc2c1C` (centres unmarked) [Example A105, 3-{[(4-{[2-ethyl-1-(5-methoxy-3-methyl-1-benzofuran-2-yl)butyl]amino}phenyl)carbonyl](methyl)amino}propanoic acid], the inhibition at 10 µM worked out at 67%.

As to `CCCCCCC(Nc1ccc(C(=O)NCCC(=O)O)cc1)c1cc2cc(Cl)ccc2n1-c1cccc(C(F)(F)F)c1` (centres unmarked) [Example A106, 3-[({4-[(1-{5-chloro-1-[3-(trifluoromethyl)phenyl]-1H-indol-2-yl}heptyl)amino]phenyl}carbonyl)amino]propanoic acid], the inhibition at 10 µM was determined as 69%.

As for `CCCCCCC(Nc1ccc(C(=O)N(C)CCC(=O)O)cc1)c1cc2cc(Cl)ccc2n1-c1cccc(C(F)(F)F)c1` (centres unmarked) [Example A107, 3-[({4-[(1-{5-chloro-1-[3-(trifluoromethyl)phenyl]-1H-indol-2-yl}heptyl)amino]phenyl}carbonyl)(methyl)amino]propanoic acid], the inhibition at 10 µM stood at 74%.
